Assay results taken from patent US20250287930A1, “REGULATION OF IMMUNE RESPONSES THROUGH SELECTIVE NEURAL ACTIVATION” (The Trustees of Columbia University in the City of New York, priority 2024, published 2025).

Assays:
[1] = system: LPS-activated neurons in the cNST; test: Chemogenetic activation of LPS-TRAPed cNST neurons, cytokines; assay type: in vivo, mice
Experimental: (§1) All stereotaxic surgery procedures were carried out using aseptic technique. […] The viral constructs were injected into the cNST through a small craniotomy. The injection coordinates (based on Paxinos stereotaxic coordinates) for virus delivery in the cNST were as follows: caudal 7.5 mm, lateral ±0.3 mm, ventral 3.7-4 mm, all relative to Bregma. In chemogenetic experiments, TRAP2, Dbh-cre, Vglut2-cre and Vgat-cre mice received bilateral injections of 200 nl of AAV9-Syn-DIO-hM3Dq (Addgene, #44361-AAV9) and 300 nl of AAV9-Syn-DIO-hM4Di (Addgene, #44362-AAV9) in the cNST. Equivalent volumes of AAV9-Syn-DIO-mCherry (Addgene, #50459-AAV9) were injected as controls. For fiber photometry experiments, Vglut2-cre mice were unilaterally injected with 100 nl of AAV9-Syn-Flex-GCaMP6s (Addgene, #100845-AAV9) in the cNST, and an optical fiber (400 μm core, 0.48 NA, Doric Lenses) was implanted 50-100 μm above the GCaMP virus injection site.
(§2) The TRAP strategy was used in TRAP2 mice to gain genetic access to LPS-activated neurons in the cNST. […]
(§3) When using TRAP2 animals, at least 4 weeks elapsed between TRAPing and CNO treatment. […] Cytokines in the blood were measured using commercially available ELISA kits (R&D), following manufacturer's instructions. […]

[2] = system: cNST neurons; test: Fos induction in the cNST after intraperitoneal immune stimulation; assay type: in vivo, mice; conditions: for Fos induction in the cNST: intraperitoneal injection, brains taken 2 h later
Experimental: (§4) Mice housed in their home cages were injected intraperitoneally with lipopolysaccharide (LPS, 50 μg kg-1, Cell Signaling Technology, #14011), lipoteichoic acid (LTA, 1 mg kg-1 Sigma, #L2512), Flagellin (20 μg kg-1, Sigma Aldrich #SRP8029), Profilin (20 μg kg-1, Sigma Aldrich, #SRP8050), Zymosan (2.5 mg kg-1, Sigma Aldrich #Z4250), IL-10 (100 μg kg-1, BioLegend, #575804), a cocktail of IL-6 (100 μg kg-1, BioLegend #575706), IL-1β (100 μg kg-1, R&D, #401-ML) and TNF-α (100 μg kg-1, R&D, #410-MT), or saline control (0.9% NaCl), then 2 h later, perfused transcardially with PBS followed by 4% paraformaldehyde. Brains were dissected, fixed in 4% PFA overnight at 4° C., and then sliced coronally at 100 μm thickness. The brain sections were permeabilized and blocked with 10% normal donkey serum (EMD Millipore, #S30) in PBS containing 0.3% Triton X-100. Sections were incubated with an anti-Fos primary antibody (SYSY, #226004 guinea pig, diluted 1:5,000) at 4° C. overnight, followed by labeling with a secondary antibody (Alexa Fluor 647-conjugated donkey anti-guinea pig, Jackson ImmunoResearch, #706605148) at room temperature for 2 h. For double RNA in situ hybridization, fixed frozen nodose ganglia or brains were sectioned at 16 μm thickness and processed for mRNA detection using the RNAscope Fluorescent Multiplex Kit (Advanced Cell Diagnostics) following the manufacturer's instructions. The following RNAscope probes were used: Fos (#316921-C2), Dbh (#464621-C1), Trpa1 (#400211-C3) and Calca (#578771-C2), GFP (#400281-C1). Images were acquired using an Olympus FluoView 1000 confocal microscope. Quantification of fluorescent signals was carried out by manually counting the number of positive neurons.

[3] = system: vagal sensory neurons; test: Vagal calcium imaging of nodose ganglion (GCaMP6s in all vagal sensory neurons); assay type: in vivo, mice; conditions: for number of responding vagal sensory neurons: of 423 imaged vagal sensory neurons, cytokine intraperitoneal; for calcium activity in a subset of vagal sensory neurons: intraperitoneal cytokine, nodose ganglion
Experimental: (§5) Calcium imaging of the nodose ganglion was conducted as described previously (Li, M. et al. Nature 610, 722-730, (2022); Tan, H. E. et al. Nature 580, 511-516, (2020)). For imaging in response to intragastric delivery of glucose (or linoleic acid), and IP injections of saline control and cytokines, a typical recording session consisted of: 1st: saline; 2nd: one of the three pro-inflammatory cytokines (TNF-α, IL-1β or IL-6); 3rd: anti-inflammatory cytokine (IL-10); 4th and 5th: two trials with glucose (or linoleic acid); each trial was 5 min. Cytokines were injected 1 min after the onset of the recording. Glucose (500 mM) and linoleic acid (10%) was delivered intragastrically. For all experiments 100 μg kg-1 of each cytokine was used. To deliver cytokines […], a segment of the intestine was placed in a custom-made perfusion chamber while still keeping it connected to the remainder of the gastrointestinal tract (no carbogenation). Each recording session included six interleaved trials, with 2 trials for each stimulus. Trials were 15 mins long, and consisted of a 180-s baseline (saline), a 180-s cytokine or control stimulus, and a 9-min washout (saline) period. The flow rates were maintained at around 600 μl min-1 throughout the experiment to minimize mechanical responses that may occur during the transition between trials. Cytokines were dissolved in saline at the concentration of 1 μg ml-1. During the entire perfusion session, all of the solutions were maintained at 37° C.
Imaging data was acquired exactly as previously described (Li, M. et al. Nature 610, 722-730, (2022); Tan, H. E. et al. Nature 580, 511-516, (2020)). Neuronal activity was analyzed for significant stimulus-evoked responses as described. The baseline distribution of deviations was first computed from the median for each cell throughout the entire experiment using periods prior to the stimulus delivery. Subsequently, this baseline was utilized to derive a modified z-score by subtracting the median and dividing by the median absolute deviation. Trials with an average modified z-score above 1.6 for the 180s (stimuli delivered via IP) or 480s (stimuli delivered via perfusion) following the initiation of stimulation were classified as responding trials (all responders had minimal peak amplitudes of 1% ΔF/F). Z-scores from responders were normalized across stimuli to generate heat maps of normalized fluorescence traces.

[4] = system: circulating cytokines; test: LPS-induced circulating cytokines in peripheral blood by ELISA; assay type: in vivo, mice
Experimental: When using TRAP2 animals, at least 4 weeks elapsed between TRAPing and CNO treatment. Two doses (2 mg kg-1 and 1 mg kg-1) of CNO were given intraperitoneally at 12 h and 1 h prior to saline or LPS stimulation. Two hours after the intraperitoneal injection of saline or LPS (0.1 mg kg-1), blood samples were collected from either the submandibular or the tail vein. Cytokines in the blood were measured using commercially available ELISA kits (R&D), following manufacturer's instructions. Saline and LPS experiments were conducted on the same cohort of mice but at least 7 days apart.
To examine LPS-induced cytokine responses over time, wild-type (C56BL/6J) mice were injected IP with saline or LPS, and peripheral blood samples were collected at 0, 2 hours, 4 hours, and 6 hours post-stimulation.

[5] = system: cNST neurons; test: Fiber photometry of LPS-evoked activity in the cNST (GCaMP6s, Vglut2-cre mice); assay type: in vivo
Experimental: as §1
Photometry experiments were conducted at least 14 days after the stereotaxic viral injection and fiber implantation (see the section on stereotaxic surgery for details). Prior to the experiments, mice were acclimated to the recording chamber for 1 h per day over 3 consecutive days. On the 4th and 5th day, mice were recorded for the bulk GCaMP responses to saline and LPS (0.5 mg kg-1), respectively, in a 5 h recording session. Saline and LPS were intraperitoneally injected 15 min after the onset of recording. Real-time population-level GCaMP fluorescence signals were detected, amplified and recorded using a RZ5P fiber photometry system with Synapse software (Tucker Davis Technologies). The collected data were downsampled, detrended and smoothed by custom MATLAB code. The calcium transients were identified as described previously (Barretto, R. P. et al. Nature 517, 373-376, (2015); Rousseeuw, P. J. C., C. J. Am. Stat. Assoc. 88, 1273-1283, (1993); Jin, H., Fishman, Z. H., Ye, M., Wang, L. & Zuker, C. S. Cell 184, 257-271 e216, (2021)) and the area under the curve (AUC) was calculated by integrating fluorescence signal under identified calcium transients. […]

[6] = system: LPS-activated neurons in the cNST; test: Chemogenetic inhibition of LPS-TRAPed cNST neurons, LPS-evoked cytokines; assay type: in vivo, mice; design: unit not given here; conditions: LPS-treated but not silenced animals
Experimental: as §1, §2, §3

[7] = system: DBH neurons in the cNST; test: Fos induction in DBH neurons in the cNST by LPS and cytokine stimulation; assay type: in vivo; conditions: Dbh-cre mice, intraperitoneal injection
Experimental: as §4, with “For double RNA in situ hybridization, fixed frozen nodose ganglia or brains were sectioned at 16 μm thickness and processed for mRNA detection using the RNAscope Fluorescent Multiplex Kit (Advanced Cell Diagnostics) following the manufacturer's instructions. The following RNAscope probes were used: Fos (#316921-C2), Dbh (#464621-C1), Trpa1 (#400211-C3) and Calca (#578771-C2), GFP (#400281-C1). Images were acquired using an Olympus FluoView 1000 confocal microscope.” left out

[8] = system: TRPA1 vagal neurons; test: Calcium imaging of TRPA1 vagal neurons; assay type: in vivo, mice
Experimental: as §5, with “Trials were 15 mins long, and consisted of a 180-s baseline (saline), a 180-s cytokine or control stimulus, and a 9-min washout (saline) period. The flow rates were maintained at around 600 μl min-1 throughout the experiment to minimize mechanical responses that may occur during the transition between trials. Cytokines were dissolved in saline at the concentration of 1 μg ml-1. During the entire perfusion session, all of the solutions were maintained at 37° C.” left out
Imaging data was acquired exactly as previously described (Li, M. et al. Nature 610, 722-730, (2022); Tan, H. E. et al. Nature 580, 511-516, (2020)). Neuronal activity was analyzed for significant stimulus-evoked responses as described. […] Z-scores from responders were normalized across stimuli to generate heat maps of normalized fluorescence traces.

## C[N+]1([O-])CCN(C2=Nc3cc(Cl)ccc3Nc3ccccc32)CC1 [CNO, clozapine N-oxide]
[1]
  anti-inflammatory cytokines (IL-10), change on activation: very large increase
  pro-inflammatory cytokines, change on activation: dramatic suppression

## Flagellin
[2]
  Fos induction in the cNST: robustly activated Fos

## IL-1β: pro-inflammatory cytokine
[3]
  number of responding vagal sensory neurons: 8

## Profilin
[2]
  Fos induction in the cNST: robustly activated Fos

## lipopolysaccharide [LPS]
[2]; Myd88−/− mice, LPS intraperitoneally, 2 h
  Fos expression in the cNST of Myd88−/− mice: largely absent
[2]
  Fos induction in the cNST: robustly activated Fos
[4]; IL-6, IL-1β, TNF-α, IL-10, 2 h after LPS
  cytokine induction in Myd88−/− mice: dramatically reduced
[4]; control animals given LPS
  TNFa in the peripheral blood: 200 pg/mL
[5]; LPS 0.5 mg kg-1
  reduction of average cNST response after vagotomy: ~80%
[5]; LPS 0.5 mg kg-1, after bilateral vagotomy
  cNST GCaMP6s response, AUC (area under the curve): 10.6±6.1
[5]; LPS 0.5 mg kg-1, intact vagus
  cNST GCaMP6s response, AUC (area under the curve): 52.6±7.2
[6]
  IL-1β level: 200
  IL-10 level: 750
[3]; LPS 0.5 mg kg-1
  direct activation of vagal neurons: not directly activated
[7]
  activation (Fos) of DBH neurons in the cNST: activate DBH neurons

## lipoteichoic acid [LTA]
[2]
  Fos induction in the cNST: robustly activated Fos

## tumor necrosis factor [TNF-α]
[3]
  calcium activity in a subset of vagal sensory neurons: triggered robust activity
  number of responding vagal sensory neurons: 13

B1: interleukin-10 (protein, UniProt P22301 19-178, looked up)
Interleukin-10: SPGQGTQSENSCTHFPGNLPNMLRDLRDAFSRVKTFFQMKDQLDNLLLKESLLEDFKGYLGCQALSEMIQFYLEEVMPQAENQDPDIKAHVNSLGENLKTLRLRLRRCHRFLPCENKSKAVEQVKNAFNKLQEKGIYKAMSEFDIFINYIEAYMTMKIRN
notes: anti-inflammatory cytokine
[2]
  Fos induction in the cNST: induces significant Fos labelling
[3]
  number of responding vagal sensory neurons: 11/423
[8]; GCaMP6s imaging
  activation of TRPA1-expressing vagal neurons: activated
[8]; imaged TRPA1 neurons, IP or perfusion
  number of responding TRPA1 neurons: 27 of 189
[7]
  activation (Fos) of DBH neurons in the cNST: activate DBH neurons

B2: interleukin-4 (protein, UniProt P05112 25-153, looked up)
Interleukin-4: HKCDITLQEIIKTLNSLTEQKTLCTELTVTDIFAASKNTTEKETFCRAATVLRQFYSHHEKDTRCLGATAQQFHRHKQLIRFLKRLDRNLWGLAGLNSCPVKEANQSTLENFLERLKTIMREKYSKCSS
notes: anti-inflammatory cytokine
[3]
  calcium activity in a subset of vagal sensory neurons: triggered robust activity
